Activity calls are given as the source filed them. The calls are words filed in the database; no cut-off is given here.
Experiments:
[1] = Partition coefficient (logP); format: physicochemical; details: octanol/water
Histamine H1 receptor [2] = target: T1, Histamine H1 receptor (Cavia porcellus, UniProt P31389); assay: In vitro antagonistic activity at the Histamine H1 receptor in guinea pig ileum; format: functional, tissue-based
Mus musculus [3] = assay: In vivo activity of compound at 10 mg/kg in 48/80 challenge expressed as number of mice surviving for more than 240 min; 0/2; format: functional; details: 4 h
Mus musculus [4] = assay: In vivo activity of compound at 40 mg/kg in 48/80 challenge expressed as number of mice surviving for more than 240 min; 0/2; format: functional; details: 4 h
Mus musculus [5] = assay: In vivo activity of compound at 40 mg/kg in 48/80 challenge expressed as number of mice surviving for more than 240 min; 1/2; format: functional; details: 4 h
Mus musculus [6] = species on record: Mus musculus; assay: Ability of compound to protect mice against a lethal dose of 48/80; No activity; format: functional, organism-based
Mus musculus [7] = species on record: Mus musculus; assay: Compound was tested for protection against 48/80 challenge in mice; No activity with both mice dying at 36 min; format: functional, organism-based
Histamine H1 receptor [8] = target: T1, Histamine H1 receptor; assay: In vitro antagonistic activity at the Histamine H1 receptor in guinea pig ileum; No inhibition; format: functional, tissue-based
Mus musculus [9] = assay: In vivo activity of compound at 10 mg/kg in 48/80 challenge expressed as number of mice surviving for more than 240 min; 1/2; format: functional; details: 4 h
Mus musculus [10] = assay: In vivo activity of compound at 40 mg/kg in 48/80 challenge expressed as number of mice surviving for more than 240 min; 2/2; format: functional; details: 4 h
Mus musculus [11] = assay: Effective dose (in vivo) by administering the compound in mice was determined; format: functional
Mus musculus [12] = species on record: Mus musculus; assay: Effect of compound in the […] challenge in mice; No activity; format: functional, organism-based
Mus musculus [13] = species on record: Mus musculus; assay: Effective dose of compound in the […] challenge in mice.; format: functional

T1 sequence (P31389 whole entry): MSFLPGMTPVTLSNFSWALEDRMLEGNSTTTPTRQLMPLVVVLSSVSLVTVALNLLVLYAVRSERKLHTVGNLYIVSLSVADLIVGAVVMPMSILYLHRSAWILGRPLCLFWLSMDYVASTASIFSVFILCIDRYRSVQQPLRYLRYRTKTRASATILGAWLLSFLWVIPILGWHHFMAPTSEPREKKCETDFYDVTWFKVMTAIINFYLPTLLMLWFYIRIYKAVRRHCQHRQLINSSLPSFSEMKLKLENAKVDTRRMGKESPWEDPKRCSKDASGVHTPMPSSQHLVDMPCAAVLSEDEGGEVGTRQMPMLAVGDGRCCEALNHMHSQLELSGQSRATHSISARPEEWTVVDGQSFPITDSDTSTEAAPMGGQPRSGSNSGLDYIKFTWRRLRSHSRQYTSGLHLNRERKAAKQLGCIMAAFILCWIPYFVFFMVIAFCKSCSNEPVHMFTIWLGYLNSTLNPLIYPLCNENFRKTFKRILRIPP

Compound	logP ([1]; read-out: logP)	IC50 (Histamine H1 receptor [2]) [nM]	survival at 10 mg/kg (Mus musculus [3]) [%]	survival at 40 mg/kg (Mus musculus [4]) [%]	also measured
CN1CC=C2C(=C(c3ccccc3)c3ccccc32)C1	4.94	220	0	0	
CCN1CCC2=C(C1)C(c1ccccc1)c1ccccc12 (centres undefined)	4.92	17	0		survival at 40 mg/kg (Mus musculus [5]): 50%
CCc1ccc(C2C3=C(CCN(C)C3)c3ccc(CC)cc32)cc1 (centres undefined)			0	0	
c1ccc(CN2CCC3=C(C2)C(c2ccccc2)c2ccccc23)cc1 (centres undefined)	6.02	470	0	0	
CN1CC[C@@](O)(c2ccccc2)[C@H](C(=O)c2ccccc2)C1		26			Activity (Mus musculus [6]): inactive
c1ccc(CCN2CCC3=C(C2)C(c2ccccc2)c2ccccc23)cc1 (centres undefined)	6.59		0	0	
CN1CC[C@H]2c3ccccc3[C@@H](c3ccccc3)[C@H]2C1					Activity (Mus musculus [7]): inactive
c1ccc(CCN2CCC3C(=C(c4ccccc4)c4ccccc43)C2)cc1 (centres undefined)	7.43		0		survival at 40 mg/kg (Mus musculus [5]): 50%
CCN1CC=C2C(=C(c3ccccc3)c3ccccc32)C1					IC50 (Histamine H1 receptor [8]): Not Active
CN1CCC2=C(C1)C(c1ccccc1)c1ccccc12 (centres undefined) [PHENINDAMINE]		36			
CN1CCC2C(=C(c3ccccc3)c3ccccc32)C1 (centres undefined)	5.23	28			survival at 10 mg/kg (Mus musculus [9]): 50%; survival at 40 mg/kg (Mus musculus [10]): 100%
CCN1CCC2C(=C(c3ccccc3)c3ccccc32)C1 (centres undefined)	5.76				survival at 40 mg/kg (Mus musculus [10]): 100%
c1ccc(CN2CCC3C(=C(c4ccccc4)c4ccccc43)C2)cc1 (centres undefined)		10.8	0	0	logP [1]: 7.03
C1=C2C(=C(c3ccccc3)c3ccccc32)CNC1	4.41	53		50	ED50 (Mus musculus [11]): 40 mg/kg; survival at 40 mg/kg (Mus musculus [5]): 50%
CCc1ccc([C@@H]2c3cc(CC)ccc3[C@@H]3CCN(C)C[C@H]23)cc1					ED50 (Mus musculus [12]): inactive
CCN1CC[C@@](O)(c2ccccc2)[C@H](C(=O)c2ccccc2)C1		23			Activity (Mus musculus [6]): inactive
CN1CC[C@H]2c3ccccc3C(c3ccccc3)[C@H]2C1 (single isomer, unassigned)					ED50 (Mus musculus [13]): 40 mg/kg

Reference: ChEMBL document CHEMBL1132913, “Conformationally-restricted ligands for the histamine H1 receptor” (Bioorg Med Chem Lett, 2000)
